Assay [1] deals with PBK (Homo sapiens (Human), UniProt Q96KB5). Kind of assay: Kinase assay (IMAP fluorescence polarization, FITC-labeled histone H3 peptide). In kind it is biochemical. As to the method:
PBK activity was determined in the presence or absence of compounds using fluorescein isothiocyanate-labeled (FITC-labeled) histone H3 peptide as a substrate. […] The serially diluted compounds, 0.8 ng/micro-L PBK (Carna Biosciences) and 100 nM FITC-labeled histone H3 peptide were reacted in a reaction buffer (20 mM HEPES, 0.01% Tween-20, 0.3 mM MgCl2, 2 mM dithiothreitol, 50 micro-M ATP, pH 7.4) at room temperature for 1 hour. The reaction was stopped by the addition of three fold assay volume of progressive binding solution. […] IC50 values were calculated by nonlinear four parameter fit using SigmaPlot, version 10.0 (Systat Software, Inc.).
(In general: Fluorescence polarisation rises when a labelled molecule tumbles more slowly, as on binding a larger partner.)

For assay [2], the system named is A549 cells. Kind of assay: Cell-based assay, cellular growth (Cell Counting Kit-8, 72 hours). Here is the method: (§1) 100 micro-L of cell suspension was seeded onto 96-well microtiter plate (ViewPlate-96FTC, PerkinElmer). […] Cellular growth was determined using Cell Counting Kit-8 (DOJINDO) at 72 hours after the exposure of the candidate inhibitors. […] Accurate IC50 values were calculated as described previously.
In general terms: Tetrazolium dyes change colour on reduction, which living cells bring about.

The subject of assay [3] is BT-549 cells. The assay is described as above. As to conditions: Homo sapiens, BT549 cells. As to the method: as §1
The test system of assay [4] is T47D cells. Described as above. As to the method: as §1
Assay [5] has as its system HT-1197 cells. Kind of assay: Cell-based assay, cellular growth (Cell Counting Kit-8, 72 hours), PBK-negative control cells. As to the method:
as §1

Where [6] appears, read: PBK 0.8 ng/micro-L, 50 micro-M ATP, 100 nM FITC-labeled histone H3 peptide, room temperature 1 hour.
Setting [7] is: Homo sapiens, HT1197 cells (PBK-negative control).
The mark [8] stands for this setting: PBK 0.8 ng/micro-L, 50 micro-M ATP, 100 nM FITC-labeled histone H3 peptide, room temperature 1 hour, hydrobromide.
Where [9] appears, read: HT1197 cells (PBK-negative control), hydrobromide.

Where a name gives a salt, the structure may show the parent alone. Read-outs that look alike come from different tables or passages of the source.

Chain of PBK (Q96KB5 whole entry): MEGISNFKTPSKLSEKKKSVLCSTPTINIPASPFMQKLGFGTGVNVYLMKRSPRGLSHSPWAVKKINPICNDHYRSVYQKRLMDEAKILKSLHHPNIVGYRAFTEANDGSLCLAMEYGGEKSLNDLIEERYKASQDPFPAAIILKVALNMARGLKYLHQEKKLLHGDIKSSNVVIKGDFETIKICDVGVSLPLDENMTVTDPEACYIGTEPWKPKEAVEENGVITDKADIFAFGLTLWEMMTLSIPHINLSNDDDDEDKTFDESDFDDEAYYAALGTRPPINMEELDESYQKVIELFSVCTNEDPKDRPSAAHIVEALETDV

For `CC(N)c1ccc(-c2c(O)cc(Cl)c3[nH]c(=O)c4sccc4c23)cc1` (stereo not shown) [Compound 1041, 9-(4-(1-aminoethyl)phenyl)-6-chloro-8-hydroxythieno[2,3-c]quinolin-4(5H)-one hydrochloride], the 50% inhibitory concentration (IC50) in assay [1] was 0.012 µM; in assay [2] (Homo sapiens, A549, 72 h) it was 0.16 µM; in assay [3], 0.19 µM; in assay [4] (Homo sapiens, T47D, 72 h) it was 0.34 µM; in assay [5] (Homo sapiens, HT1197, 72 h), 0.65 µM.
For the compound `CN[C@H](C)c1ccc(-c2c(O)ccc3[nH]c(=O)c4sccc4c23)cc1` [Compound 1052, (R)-8-hydroxy-9-(4-(1-(methylamino)ethyl)phenyl)thieno[2,3-c]quinolin-4(5H)-one hydrochloride], the IC50 is 0.0013 µM in assay [1] (setting [6]); 0.17 µM in assay [2] (Homo sapiens, A549, 72 h); 0.17 µM in assay [3]; 0.32 µM in assay [4] (Homo sapiens, T47D, 72 h); 0.45 µM in assay [5] (Homo sapiens, HT1197, 72 h).
For the compound `C[C@@H](N)c1ccc(-c2c(O)cc(Cl)c3[nH]c(=O)c4sccc4c23)cc1` [Compound 1081, (R)-9-(4-(1-aminoethyl)phenyl)-6-chloro-8-hydroxythieno[2,3-c]quinolin-4(5H)-one hydrochloride], the IC50 came to 0.0086 µM in assay [1]; 0.1 µM in assay [2] (Homo sapiens, A549, 72 h); 0.086 µM in assay [3]; 0.17 µM in assay [4] (Homo sapiens, T47D, 72 h); 0.39 µM in assay [5] (Homo sapiens, HT1197, 72 h).
As to `CC(CN(C)C)c1ccc(-c2c(O)ccc3[nH]c(=O)c4sccc4c23)cc1` (stereo not shown) [Compound 1112, 9-(4-(1-(dimethylamino)propan-2-yl)phenyl)-8-hydroxythieno[2,3-c]quinolin-4(5H)-one hydrochloride], the half-inhibitory concentration (IC50) in assay [1] is 0.0033 µM; in assay [2] (Homo sapiens), 0.25 µM; in assay [3], 0.21 µM; in assay [4] (Homo sapiens), 0.47 µM; in assay [5] (setting [7]), 0.64 µM.
For `C[C@H](c1ccc(-c2c(O)cc(Cl)c3[nH]c(=O)c4sccc4c23)cc1)N(C)C` [Compound 1126, (R)-6-chloro-9-(4-(1-(dimethylamino)ethyl)phenyl)-8-hydroxythieno [2,3-c]quinolin-4(5H)-one hydrochloride], the IC50 in assay [1] (setting [6]) turned out to be 0.042 µM; in assay [2] (Homo sapiens, A549, 72 h) it was 0.11 µM; in assay [3], 0.14 µM; in assay [4] (Homo sapiens, T47D, 72 h) it was 0.29 µM; in assay [5] (Homo sapiens, HT1197, 72 h) it was 0.32 µM.
Regarding `CN[C@H](C)c1ccc(-c2c(O)cc(Cl)c3[nH]c(=O)c4sccc4c23)cc1` [Compound 1132, (R)-6-chloro-8-hydroxy-9-(4-(1-(methylamino)ethyl)phenyl)thieno[2,3-c]quinolin-4(5H)-one hydrochloride], the half-maximal inhibitory concentration (IC50) in assay [1] (setting [6]) is 0.014 µM; in assay [2] (Homo sapiens, A549, 72 h), 0.09 µM; in assay [3], 0.097 µM; in assay [4] (Homo sapiens, T47D, 72 h) it was 0.19 µM; in assay [5] (Homo sapiens, HT1197, 72 h), 0.32 µM.
For `NCCc1ccc(-c2c(O)cc(Cl)c3[nH]c(=O)c4sccc4c23)cc1` [Compound 1133, 9-(4-(2-aminoethyl)phenyl)-6-chloro-8-hydroxythieno[2,3-c]quinolin-4(5H)-one hydrochloride], the IC50 in assay [1] was 0.02 µM; in assay [2] (Homo sapiens, A549, 72 h) it was 0.18 µM; in assay [3], 0.15 µM; in assay [4] (Homo sapiens, T47D, 72 h), 0.23 µM; in assay [5] (Homo sapiens, HT1197, 72 h) it was 0.87 µM.
For the compound `CC(CN)c1ccc(-c2c(O)cc(Cl)c3[nH]c(=O)c4sccc4c23)cc1` (stereo not shown) [Compound 1136, 9-(4-(1-aminopropan-2-yl)phenyl)-6-chloro-8-hydroxythieno[2,3-c]quinolin-4(5H)-one hydrochloride], the half-maximal inhibitory concentration (IC50) was 0.0086 µM in assay [1] (setting [6]); 0.035 µM in assay [2] (Homo sapiens, A549, 72 h); 0.032 µM in assay [3]; 0.057 µM in assay [4] (Homo sapiens, T47D, 72 h); 0.18 µM in assay [5] (Homo sapiens, HT1197, 72 h).
As to `COc1ccc2[nH]c(=O)c3sccc3c2c1-c1ccc(S(=O)(=O)NCCCl)cc1` [Compound 1139, N-(2-chloroethyl)-4-(8-methoxy-4-oxo-4,5-dihydrothieno[2,3-c]quinolin-9-yl)benzenesulfonamide], the half-inhibitory concentration (IC50) in assay [1] (setting [6]) stood at 0.07 µM; in assay [2] (Homo sapiens) it was 0.023 µM; in assay [3], 0.017 µM; in assay [4] (Homo sapiens), 0.2 µM; in assay [5] (setting [7]), 14 µM.
As for `NCCc1ccc(-c2c(O)cc(Br)c3[nH]c(=O)c4sccc4c23)cc1` [Compound 1142, 9-(4-(2-aminoethyl)phenyl)-6-bromo-8-hydroxythieno[2,3-c]quinolin-4(5H)-one hydrochloride], the half-maximal inhibitory concentration (IC50) came to 0.045 µM in assay [1] (setting [6]); 0.21 µM in assay [2] (Homo sapiens, A549, 72 h); 0.17 µM in assay [3]; 0.25 µM in assay [4] (Homo sapiens, T47D, 72 h); 1 µM in assay [5] (Homo sapiens, HT1197, 72 h).
The like results for `COc1ccc2[nH]c(=O)c3sccc3c2c1-c1ccc([C@@H](C)CN)cc1` [Compound 1161, (R)-9-(4-(1-aminopropan-2-yl)phenyl)-8-methoxythieno[2,3-c]quinolin-4(5H)-one hydrochloride] were, in that order, 0.002 µM, 0.27 µM, 0.22 µM, 0.45 µM and 0.82 µM.
On to `C[C@@H](CN)c1ccc(-c2c(O)cc(Cl)c3[nH]c(=O)c4sccc4c23)cc1` [Compound 1166, (R)-9-(4-(1-aminopropan-2-yl)phenyl)-6-chloro-8-hydroxythieno[2,3-c]quinolin-4(5H)-one hydrochloride], for which the IC50 in assay [1] (setting [6]) came out at 0.0044 µM; in assay [2] (Homo sapiens, A549, 72 h) it was 0.017 µM; in assay [3], 0.013 µM; in assay [4] (Homo sapiens, T47D, 72 h), 0.026 µM; in assay [5] (Homo sapiens, HT1197, 72 h), 0.12 µM.
Consider `Cc1cc(O)c(-c2ccc([C@H](C)CN)c(F)c2)c2c1[nH]c(=O)c1sccc12` [Compound 1304, (S)-9-(4-(1-aminopropan-2-yl)-3-fluorophenyl)-8-hydroxy-6-methylthieno[2,3-c]quinolin-4(5H)-one hydrobromide], for which the concentration for half-maximal inhibition (IC50) is 0.013 µM in assay [1] (setting [8]), 0.099 µM in assay [2] (hydrobromide), 0.12 µM in assay [4] (hydrobromide) and 0.34 µM in assay [5] (setting [9]).
`CNC[C@H](C)c1ccc(-c2c(O)cc(C)c3[nH]c(=O)c4sccc4c23)cc1` [Compound 1306, (R)-8-hydroxy-6-methyl-9-(4-(1-(methylamino)propan-2-yl)phenyl)thieno[2,3-c]quinolin-4(5H)-one hydrochloride]: the IC50 in assay [1] (PBK 0.8 ng/micro-L, 50 micro-M ATP, 100 nM FITC-labeled histone H3 peptide, room temperature 1 hour, hydrochloride) was determined as 0.0073 µM; in assay [2] (hydrochloride), 0.02 µM; in assay [4] (hydrochloride), 0.035 µM; in assay [5] (HT1197 cells (PBK-negative control), hydrochloride), 0.073 µM.
For the compound `Cc1cc(O)c(-c2ccc([C@@H](C)CN)c(F)c2)c2c1[nH]c(=O)c1sccc12` [Compound 1319, (R)-9-(4-(1-aminopropan-2-yl)-3-fluorophenyl)-8-hydroxy-6-methylthieno[2,3-c]quinolin-4(5H)-one hydrobromide], the concentration for half-maximal inhibition (IC50) in assay [1] (setting [8]) amounted to 0.0034 µM; in assay [2] (hydrobromide) it was 0.014 µM; in assay [4] (hydrobromide) it was 0.016 µM; in assay [5] (setting [9]), 0.054 µM.
As to `Cc1cc(O)c(-c2ccc([C@@H](C)CN(C)C)cc2)c2c1[nH]c(=O)c1sccc12` [Compound 1324, (R)-9-(4-(1-(dimethylamino)propan-2-yl)phenyl)-8-hydroxy-6-methylthieno[2,3-c]quinolin-4(5H)-one hydrochloride], the half-inhibitory concentration (IC50) in assay [2] (Homo sapiens) came to 0.024 µM; in assay [3], 0.03 µM; in assay [4] (Homo sapiens), 0.066 µM.
As for `CCN(C)C[C@H](C)c1ccc(-c2c(O)cc(C)c3[nH]c(=O)c4sccc4c23)cc1` [Compound 1379, (R)-9-(4-(1-(ethyl(methyl)amino)propan-2-yl)phenyl)-8-hydroxy-6-methylthieno[2,3-c]quinolin-4(5H)-one hydrochloride], the IC50 is 0.076 µM in assay [1]; 0.11 µM in assay [2] (Homo sapiens, A549, 72 h); 0.28 µM in assay [4] (Homo sapiens, T47D, 72 h); 0.31 µM in assay [5] (Homo sapiens, HT1197, 72 h).
The like results for `CC[C@@H](CNC)c1ccc(-c2c(O)cc(C)c3[nH]c(=O)c4sccc4c23)cc1` [Compound 1380, (R)-8-hydroxy-6-methyl-9-(4-(1-(methylamino)butan-2-yl)phenyl)thieno[2,3-c]quinolin-4(5H)-one hydrochloride] were, in that order, 0.085 µM, 0.096 µM, 0.24 µM and 0.37 µM.
The like results for `Cc1cc(O)c(-c2ccc([C@H](C)CN(C)C)c(F)c2)c2c1[nH]c(=O)c1sccc12` [Compound 1399, (S)-9-(4-(1-(dimethylamino)propan-2-yl)-3-fluorophenyl)-8-hydroxy-6-methylthieno[2,3-c]quinolin-4(5H)-one hydrochloride] were, in that order, 0.058 µM, 0.18 µM, 0.45 µM and 0.47 µM.
`Cc1cc(O)c(-c2ccc(N(C)CCN)cc2)c2c1[nH]c(=O)c1sccc12` [Compound 1400, 9-(4-((2-aminoethyl)(methyl)amino)phenyl)-8-hydroxy-6-methylthieno[2,3-c]quinolin-4(5H)-one hydrochloride]: the IC50 in assay [1] (setting [6]) was found to be 0.06 µM; in assay [2] (Homo sapiens, A549, 72 h), 0.9 µM; in assay [4] (Homo sapiens, T47D, 72 h) it was 1.4 µM; in assay [5] (Homo sapiens, HT1197, 72 h) it was 2.8 µM.

By IC50 is commonly meant the concentration that inhibits the measured activity by half. Read a low IC50 as higher potency.

The record behind these values is patent US8962648B2, “Tricyclic compounds and PBK inhibitors containing the same” (OncoTherapy Science, Inc., priority 2010, dated 2015).
